Data as given in US20220362151A1, “LIPOSOME FORMULATION” (ROSI CHARNI AS, priority 2019, published 2022).
Counter-ions that a name gives are not always drawn.

Assays:
[1] = test system: NB4 cell line; assay: WST-1 viability assay, fatty acids dissolved in DMSO; format: cell-based; details: 48 hours
Protocol: NB4 cells at a concentration of 0.1×10^5 cells/mL were incubated with 37.5, 75, 150 and 300 μM of TTA, 2-tr-TTA and PA dissolved in DMSO for 48 hours. Cell viability was assessed with WST-1 assay after 4 hours of incubation, and the absorption was related to the DMSO-control. Cell viability is presented as percentage of DMSO-control (100%). The assay was performed with triplicates for each concentration of the individual SBFA and the result is presented as mean of the triplicates±SD, n=1.
(§1) As a preliminary test, NB4 was exposed to TTA, 2-tr-TTA and PA dissolved in DMSO in concentrations between 37.5 to 300 μM for 48 hours. […] It was decided to not try higher concentrations of TTA PA and 2-tr-TTA dissolved in DMSO because of DMSO's cellular toxicity. In this project, one aim was to compare TTA with N-TTA and 2-tr-N-TTA. […] Compared to DMSO-control there was no significant decrease in cell viability after treatment with B SFAs dissolved in DMSO (p>0.05).

[2] = Solubility in solvents; format: physicochemical
Protocol: Hydrogenated egg phosphatidylcholine (HEPC), cholesterol (CHO) and fatty acid compound (PA, N-TTA and TTA) were weighed out separately and dissolved in chloroform. N-TTA is not soluble in chloroform alone and was therefore dissolved in a 1:1 mixture of methanol and chloroform. The dissolved lipids were mixed in a molar ratio of 1.81 HEPC:1CHO and 0.5-2 PA/N-TTA/TTA in a 100 or 250 mL Duran round bottom flasks. Next, a thin lipid film was made by slowly evaporating the solvents by using Laborota 4000 rotary evaporator at light vacuum, 200 mbar, and 60 rpm for 1.5-2.5 hours depending on the volume of solvents. To ensure a solvent-free lipid film, full vacuum (0 mbar) was applied the last 30 minutes.
as §1

Row | Structure (SMILES) | cell viability (percentage of DMSO-control), WST-1 ([1]; NB4, 37.5-300 μM dissolved in DMSO, n=1, p>0.05) | metabolic activity (WST-1), trend as presented in FIG. 1 ([1]; NB4, 37.5-300 μM in DMSO, stimulating effect especially at 75 μM) | solubility in DMSO [2] | solubility in chloroform ([2]; chloroform alone, dissolved in 1:1 methanol and chloroform)
1 | CC#CCCCCCCCCCCCSCC(=O)O [2-tr-TTA, 2-(Tetradec-12-yn-1-ylthio)acetic acid] | lack of significant antiproliferative effect | stimulating effect | – | –
2 | CC#CCCCCCCCCCCCNCC(=O)O [2-trN-TTA, Tetradec-12-yn-1-ylglycine hydrochloride] | – | – | seemingly insoluble | –
3 | CCCCCCCCCCCCCCNCC(=O)O [N-TTA, N-tetradecylglycine] | – | – | seemingly insoluble | not soluble
